This is an account of results in patent US20240368150A1 (Hoffmann-La Roche Inc., priority 2021, published 2024).

Read-outs that look alike come from different tables or passages of the source.

Experiment [1] concerns MV-3 cells. The experiment is described as follows: T-cell - TCB - MV3 killing assay (MCSP-TCB, RFP object count by Incucyte). Particulars: Homo sapiens, MV-3, 120 h, 5 d; for Emax: normalized: MCSP-TCB only = neutral control, 20 μM reference compound A1 = 100%, read-out: MSCP TCB killing MV-3 cells 5 d Emax; for EC50: primary human T-cells + MCSP-TCB, MV-3 RFP cells, read-out: MSCP TCB killing MV-3 cells 5 d EC50. It is filed as cell-based, human.

Experiment [2] has as its system primary human T-cells.
In experiment [3] the target is hDGKzeta(1-928)-N-His (Homo sapiens (Human), UniProt Q13574). The experiment can be described thus: DGKzeta ADP Glo assay (in vitro DGK inhibition). It counts as biochemical. The conditions noted are these: DLG 125 uM, ATP 50 μM, DGK ζ 2 nM, 1 hour reaction. As to the method: (§1) DGK α and ζ kinase use ATP to phosphorylate the substrate 1,2-dilauroyl-sn-glycerol (DLG, incorporated in the liposomes). ATP is converted to ADP as a result of this enzymatic reaction. After the kinase reaction, an ATP-depletion reagent is added to terminate the kinase reaction and deplete any remaining ATP, leaving only ADP. Second, a detection reagent is added to simultaneously convert ADP to ATP and allow the newly synthesized ATP to be converted to light using a coupled luciferase/luciferin reaction.
Chain of hDGKzeta(1-928)-N-His (Q13574 whole entry): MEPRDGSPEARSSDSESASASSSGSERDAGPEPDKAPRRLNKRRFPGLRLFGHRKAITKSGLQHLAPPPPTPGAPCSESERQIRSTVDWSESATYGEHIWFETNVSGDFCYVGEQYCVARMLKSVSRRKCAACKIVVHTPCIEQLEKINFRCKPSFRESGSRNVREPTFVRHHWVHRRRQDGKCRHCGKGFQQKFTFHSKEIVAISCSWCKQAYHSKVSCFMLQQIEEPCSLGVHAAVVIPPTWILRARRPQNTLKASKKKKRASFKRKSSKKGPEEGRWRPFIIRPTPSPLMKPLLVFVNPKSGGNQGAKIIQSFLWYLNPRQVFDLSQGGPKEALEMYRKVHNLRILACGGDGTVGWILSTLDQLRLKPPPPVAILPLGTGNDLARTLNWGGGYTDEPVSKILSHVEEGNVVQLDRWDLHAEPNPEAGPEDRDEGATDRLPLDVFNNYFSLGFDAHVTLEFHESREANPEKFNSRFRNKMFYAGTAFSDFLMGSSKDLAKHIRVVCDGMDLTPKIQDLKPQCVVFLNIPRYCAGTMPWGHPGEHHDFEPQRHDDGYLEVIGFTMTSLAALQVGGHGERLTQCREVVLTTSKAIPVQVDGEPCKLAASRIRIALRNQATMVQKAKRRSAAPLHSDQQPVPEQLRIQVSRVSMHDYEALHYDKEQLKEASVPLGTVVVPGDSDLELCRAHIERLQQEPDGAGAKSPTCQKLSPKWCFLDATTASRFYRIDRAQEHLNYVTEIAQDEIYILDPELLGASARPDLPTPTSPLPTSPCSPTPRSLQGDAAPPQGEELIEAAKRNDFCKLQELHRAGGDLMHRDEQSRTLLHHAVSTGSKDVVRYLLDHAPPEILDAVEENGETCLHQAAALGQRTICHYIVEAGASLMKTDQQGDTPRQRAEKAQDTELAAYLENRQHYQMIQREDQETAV
(§2) Purification of both enzymes was performed as previously described by Takahashi et al., PeerJ, 2018 (Takahashi, D.; Sakane, F. Expression and purification of human diacylglycerol kinase alpha from baculovirus-infected insect cells for structural studies. PeerJ 2018, 6, No. e5449).
(§3) A concentrated liposome solution was prepared in assay buffer without DTT and BSA: 2 mM of DLG in 21 mM of total liposome (2 mM DLG/8 mM PS/11 mM PC). […] The reactions were started by addition of DGK α and ζ kinases at 4 nM and 2 nM final concentrations, respectively. After 1 hour reaction, the amount of ADP formed was detected with the ADP-Glo kinase assay (Promega) according to the manufacturer instructions. Compounds were added in 11-points dose response, starting at […], 1:3 dilutions, with a final DMSO concentration of 2%. The multidrop combi was used as a liquid handler and luminescence was read with 0.5 s by the envision reader (PE).

Experiment [4] deals with hDGKalpha(1-735)-N-His (Homo sapiens (Human), UniProt P23743). The experiment can be described thus: DGKalpha ADP Glo assay (in vitro DGK inhibition). The conditions noted are these: DLG 125 uM, ATP 25 μM, DGK α 4 nM, 1 hour reaction. It is filed as biochemical. As to the method:
as §1, §2, §3

Experiment [5] has as its system primary human T-cells. The experiment can be described thus: Proliferation assay after 5 days (CellTiter-Glo, CD3 stimulation; PBS counter screen). It counts as cell-based. The conditions noted are these: CD3 stimulation; for Emax: read-out: Emax proliferation (% activation); for EC50: primary human T-cells, CellTiter-Glo after 5 days, EC50 of fitted sigmoidal curve, read-out: Tcell Proliferation CD3 EC50. Put shortly: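 Primary human T-cells, with or without CD3 stimulation, exposed to compounds for 5 days; cell number read as ATP by CellTiter-Glo 2.0 luminescence after 45 min equilibration and 15 min reagent incubation at room temperature. Compounds activating unstimulated cells or reducing viability were flagged.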

Setting [6] is: Homo sapiens, T-cell, 120 h, 5 days, normalized to reference compound A1 as stimulator control = 100%, DMSO neutral control.

Chain of hDGKalpha(1-735)-N-His (P23743 whole entry): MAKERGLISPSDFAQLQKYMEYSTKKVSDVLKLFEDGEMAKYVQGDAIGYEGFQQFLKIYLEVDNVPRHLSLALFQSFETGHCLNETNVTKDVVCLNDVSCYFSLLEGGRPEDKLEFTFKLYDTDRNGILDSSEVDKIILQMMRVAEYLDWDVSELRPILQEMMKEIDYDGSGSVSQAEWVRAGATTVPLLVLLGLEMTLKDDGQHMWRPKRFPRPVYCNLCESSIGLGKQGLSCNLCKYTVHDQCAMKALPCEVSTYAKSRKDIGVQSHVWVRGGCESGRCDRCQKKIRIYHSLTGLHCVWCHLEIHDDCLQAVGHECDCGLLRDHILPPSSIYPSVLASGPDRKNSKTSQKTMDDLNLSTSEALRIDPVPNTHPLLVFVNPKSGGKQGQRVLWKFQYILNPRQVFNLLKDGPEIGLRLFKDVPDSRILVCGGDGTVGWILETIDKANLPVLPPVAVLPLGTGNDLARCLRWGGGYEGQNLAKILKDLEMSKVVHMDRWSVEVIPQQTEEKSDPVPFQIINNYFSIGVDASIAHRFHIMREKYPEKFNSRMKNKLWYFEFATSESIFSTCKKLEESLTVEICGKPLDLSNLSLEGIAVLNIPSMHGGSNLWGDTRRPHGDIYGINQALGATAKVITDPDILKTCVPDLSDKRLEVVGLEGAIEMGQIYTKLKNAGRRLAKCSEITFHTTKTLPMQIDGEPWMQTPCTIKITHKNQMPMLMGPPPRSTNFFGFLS

In the case of `CC(C)(C)c1nnc(-c2ccc3c(c2)N(Cc2ccc(OC4CCCC4)cc2)C(=O)[C@@H](N)CS3(=O)=O)o1` [Example 430, (3R)-3-amino-7-(5-tert-butyl-1,3,4-oxadiazol-2-yl)-5-[[4-(cyclopentoxy)phenyl]methyl]-1,1-dioxo-2,3-dihydro-1λ^6,5-benzothiazepin-4-one], the Emax is 96% in experiment [1] and 110% in experiment [5] (setting [6]). The EC50 was 60 nM in experiment [1]; 24.2 nM in experiment [2]; 97 nM in experiment [5] (Homo sapiens, T-cell, 120 h). The figures for the IC50 in experiment [3] and in experiment [4] were 594 nM and 467 nM, respectively.
For the compound `CC(C)(C)c1nnc(-c2ccc3c(c2)N(Cc2ccc(Cl)cc2)C(=O)[C@@H](N)CS3(=O)=O)o1` [Example 361], the Emax in experiment [1] and in experiment [5] (setting [6]) was 100% each time. In addition, the EC50 in experiment [1] came to 560 nM; in experiment [2], 525 nM; in experiment [5] (Homo sapiens, T-cell, 120 h) it was 361 nM. The IC50 in experiment [3] came out at 933 nM; in experiment [4] it was 876 nM.
As to `CC(C)(CO)c1nnc(-c2cc3c(cc2F)S(=O)(=O)C[C@H](N)C(=O)N3Cc2ccc(Cl)cc2)o1` [Example 86, (3R)-3-amino-5-[(4-chlorophenyl)methyl]-8-fluoro-7-[5-(2-hydroxy-1,1-dimethyl-ethyl)-1,3,4-oxadiazol-2-yl]-1,1-dioxo-2,3-dihydro-1λ^6,5-benzothiazepin-4-one], the Emax in experiment [1] came to 100%; in experiment [5] (setting [6]), 95%. The EC50 in experiment [1] amounted to 520 nM; in experiment [2] it was 4180 nM; in experiment [5] (Homo sapiens, T-cell, 120 h), 777 nM. Moreover, the IC50 in experiment [3] was 685 nM; in experiment [4], 643 nM.
As to `CC1(Nc2nnc(-c3ccc4c(c3)N(Cc3ccc(Cl)cc3)C(=O)[C@@H](N)CS4(=O)=O)o2)CC(F)(F)C1` [Example 406, (3R)-3-amino-5-[(4-chlorophenyl)methyl]-7-[5-[(3,3-difluoro-1-methyl-cyclobutyl)amino]-1,3,4-oxadiazol-2-yl]-1,1-dioxo-2,3-dihydro-1λ^6,5-benzothiazepin-4-one], the Emax in experiment [1] was 85%; in experiment [5] (setting [6]) it was 79%. In addition, the EC50 was determined as 1540 nM in experiment [1]; 2510 nM in experiment [2]; 1860 nM in experiment [5] (Homo sapiens, T-cell, 120 h). The IC50 in experiment [3] was determined as 14000 nM; in experiment [4], 5020 nM.
On to `N[C@H]1CS(=O)(=O)c2cc(F)c(-c3nnc(NC4CCC4)o3)cc2N(Cc2ccc(Cl)cc2)C1=O` [Example 459, (3R)-3-amino-5-[(4-chlorophenyl)methyl]-7-[5-(cyclobutylamino)-1,3,4-oxadiazol-2-yl]-8-fluoro-1,1-dioxo-2,3-dihydro-1λ^6,5-benzothiazepin-4-one], for which the Emax in experiment [1] and in experiment [5] (setting [6]) was 91% each time. Besides, the EC50 in experiment [1] amounted to 330 nM; in experiment [2], 508 nM; in experiment [5] (Homo sapiens, T-cell, 120 h), 591 nM. Further, the IC50 in experiment [3] turned out to be 632 nM; in experiment [4], 625 nM.
Turning to `CN1CCCC(F)(c2nc(-c3cc4c(cc3F)S(=O)(=O)C[C@H](N)C(=O)N4Cc3ccc(Oc4ccccc4)cc3)no2)C1` (stereo partly drawn) [Example 522, (3R)-3-amino-8-fluoro-7-[5-(3-fluoro-1-methyl-3-piperidyl)-1,2,4-oxadiazol-3-yl]-1,1-dioxo-5-[(4-phenoxyphenyl)methyl]-2,3-dihydro-1λ^6,5-benzothiazepin-4-one], the EC50 is 619 nM in experiment [2] and 782 nM in experiment [5] (Homo sapiens, T-cell, 120 h). Moreover, the IC50 in experiment [3] stood at 529 nM; in experiment [4], 4070 nM. Moreover, the Emax in experiment [5] (setting [6]) stood at 161%.
The corresponding values for `CC(C)(C)c1nnc(-c2ccc3c(c2)N(Cc2ccc(OC(F)(F)C(F)F)cc2)C(=O)[C@@H](N)CS3(=O)=O)o1` [Example 442, (3R)-3-amino-7-(5-tert-butyl-1,3,4-oxadiazol-2-yl)-1,1-dioxo-5-[[4-(1,1,2,2-tetrafluoroethoxy)phenyl]methyl]-2,3-dihydro-1λ^6,5-benzothiazepin-4-one] are 148 nM, 240 nM, 285 nM, 1390 nM and 134%.
With `N[C@H]1CS(=O)(=O)c2ccc(-c3nnc(C4CCCC(F)(F)C4)o3)cc2N(Cc2ccc(Cl)cc2)C1=O` (stereo partly drawn) [Example 373, (3R)-3-amino-5-[(4-chlorophenyl)methyl]-7-[5-(3,3-difluorocyclohexyl)-1,3,4-oxadiazol-2-yl]-1,1-dioxo-2,3-dihydro-1λ^6,5-benzothiazepin-4-one], the EC50 in experiment [2] came to 1160 nM; in experiment [5] (Homo sapiens, T-cell, 120 h), 556 nM. Moreover, the figures for the IC50 in experiment [3] and in experiment [4] were 644 nM and 1400 nM, respectively. In addition, in experiment [5] (setting [6]), the Emax was 100%.
The corresponding values for `CC(C)(C)c1nnc(-c2ccc3c(c2)N(Cc2ccc(Oc4ccccc4)cc2)C(=O)[C@@H](N)CS3(=O)=O)o1` [Example 438, (3R)-3-amino-7-(5-tert-butyl-1,3,4-oxadiazol-2-yl)-1,1-dioxo-5-[(4-phenoxyphenyl)methyl]-2,3-dihydro-1λ^6,5-benzothiazepin-4-one] are 700 nM, 246 nM, 1340 nM, 797 nM and 78%.
The corresponding values for `CC(C)(C)c1nc(-c2cc3c(cc2F)S(=O)(=O)C[C@H](N)C(=O)N3Cc2ccc(OC3CCCC3)cc2)no1` [Example 350, (3R)-3-amino-7-(5-tert-butyl-1,2,4-oxadiazol-3-yl)-5-[[4-(cyclopentoxy)phenyl]methyl]-8-fluoro-1,1-dioxo-2,3-dihydro-1λ^6,5-benzothiazepin-4-one] are 312 nM, 208 nM, 235 nM, 1610 nM and 256%.
With `CC(C)(C)c1nnc(-c2cc3c(cc2Cl)S(=O)(=O)C[C@H](N)C(=O)N3Cc2ccc(Cl)cc2)o1` [Example 523, (3R)-3-amino-7-(5-tert-butyl-1,3,4-oxadiazol-2-yl)-8-chloro-5-[(4-chlorophenyl)methyl]-1,1-dioxo-2,3-dihydro-1λ^6,5-benzothiazepin-4-one], the EC50 turned out to be 5280 nM in experiment [2] and 462 nM in experiment [5] (Homo sapiens, T-cell, 120 h). The IC50 in experiment [3] is 1510 nM; in experiment [4], 1290 nM. Moreover, the Emax in experiment [5] (setting [6]) was 45%.
The corresponding values for `CC(C)Oc1ccc(CN2C(=O)[C@@H](N)CS(=O)(=O)c3cc(F)c(-c4noc(N5CCOC6(CC6)C5)n4)cc32)nc1` [Example 215] are 5360 nM, 2170 nM, 886 nM, 662 nM and 153%.
Taken in the same sequence, the figures for `Cc1cc(S(C)(=O)=O)ccc1-c1nnc(-c2ccc3c(c2)N(Cc2ccc(Cl)cc2)C(=O)[C@@H](N)CS3(=O)=O)o1` [Example 379, (3R)-3-amino-5-[(4-chlorophenyl)methyl]-7-[5-(2-methyl-4-methylsulfonyl-phenyl)-1,3,4-oxadiazol-2-yl]-1,1-dioxo-2,3-dihydro-1λ^6,5-benzothiazepin-4-one] were 2090 nM, 4850 nM, 1300 nM, 42700 nM and 69%.
Consider `N[C@H]1C[S+]([O-])c2cc(F)c(-c3noc(N4CCOC(C(F)(F)F)C4)n3)cc2N(Cc2ccc(Cl)cc2)C1=O` (single isomer, unassigned; epimer a) [Example 213], for which the EC50 in experiment [2] came out at 3270 nM; in experiment [5] it was 1390 nM. The IC50 in experiment [3] came out at 52 nM; in experiment [4], 2140 nM. The “Emax proliferation (% activation)” value in experiment [5] (5 days, normalized to reference compound A1 as stimulator control = 100%, DMSO neutral control) was 222 % activation.
With `CC(C)(C)c1nnc(-c2cc3c(cc2F)S(=O)(=O)C[C@H](N)C(=O)N3Cc2ccc(OC3CCCC3)cc2)o1` [Example 253, (3R)-3-amino-7-(5-tert-butyl-1,3,4-oxadiazol-2-yl)-5-[[4-(cyclopentoxy)phenyl]methyl]-8-fluoro-1,1-dioxo-2,3-dihydro-1λ^6,5-benzothiazepin-4-one], the EC50 in experiment [2] was under 15.1 nM; in experiment [5] (Homo sapiens, T-cell, 120 h), 40.3 nM. Also, the IC50 stood at 105 nM in experiment [3] and 198 nM in experiment [4]. Moreover, the Emax in experiment [5] (setting [6]) is 116%.
